Data as given in PMC4815073, “Targeting of tubulin polymerization and induction of mitotic blockage by Methyl 2-(5-fluoro-2-hydroxyphenyl)-1H-benzo[d]imidazole-5-carboxylate (MBIC) in human cervical cancer HeLa cell” (Journal of Experimental & Clinical Cancer Research : CR, 2016).

Tested on: HeLa cells
Experiment: Drug combination assay (MTT, Chou-Talalay, CampuSyn)
Format: cell-based
Conditions: Homo sapiens, 24 h, drug alone, read-out: (Dm)IC50 Drug 2 (MBIC alone)
Description: In order to discover the synergistic effects of MBIC with conventional drugs briefly, cells were seeded in 1 × 10^4 cells/well and were incubated at 37 °C overnight. […] Also, the MBIC, combined with each of the selected conventional drugs in a 1:1 ratio, were diluted in concentration from 50 μM to 0.1 μM. Cell viability assay (MTT assay) was performed 24 h post-treatment and absorbance were measured in a microplate reader to find out the IC50 for each conventional drug alone and in combination with MBIC on HeLa cells. For this analysis, we used the commercial software package CampuSyn (Biosoft, Cambridge, United Kingdom; Ref.9). […] Furthermore, the software produced an automated isobologram and fraction affected-combination index (Fa-CI) plot.

`COC(=O)c1ccc2[nH]c(-c3cc(F)ccc3O)nc2c1` [MBIC, Methyl 2-(5-fluoro-2-hydroxyphenyl)-1H-benzo[d]imidazole-5-carboxylate] was tested. Which IC50 did it give?
Its IC50 is 0.21 ± 0.02 µM.
